From ChEMBL document CHEMBL5214938, “Design, synthesis and biological evaluation of pteridine-7(8H)-one derivatives as potent and selective CDK4/6 inhibitors” (Bioorg Med Chem Lett, 2022) come the findings set out here.

Usually IC50 stands for the concentration that inhibits the measured activity by half.

The target of assay [1] is Cyclin-dependent kinase 4/cyclin D1 (Homo sapiens, UniProt P11802). Description: Inhibition of CDK4/cyclin D1 (unknown origin). It is filed as protein-complex assay.
Cyclin-dependent kinase 4/cyclin D1, sequence (P11802 whole entry): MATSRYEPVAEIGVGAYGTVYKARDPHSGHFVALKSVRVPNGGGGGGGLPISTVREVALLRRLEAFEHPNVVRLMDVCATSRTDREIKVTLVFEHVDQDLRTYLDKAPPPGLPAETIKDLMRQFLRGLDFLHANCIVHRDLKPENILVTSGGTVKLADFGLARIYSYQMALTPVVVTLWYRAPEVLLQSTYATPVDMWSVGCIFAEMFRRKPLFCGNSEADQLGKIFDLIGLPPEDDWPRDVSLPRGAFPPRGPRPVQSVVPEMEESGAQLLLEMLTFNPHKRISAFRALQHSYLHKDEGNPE
Cyclin-dependent kinase 4/cyclin D1, sequence (P24385 whole entry, further chain): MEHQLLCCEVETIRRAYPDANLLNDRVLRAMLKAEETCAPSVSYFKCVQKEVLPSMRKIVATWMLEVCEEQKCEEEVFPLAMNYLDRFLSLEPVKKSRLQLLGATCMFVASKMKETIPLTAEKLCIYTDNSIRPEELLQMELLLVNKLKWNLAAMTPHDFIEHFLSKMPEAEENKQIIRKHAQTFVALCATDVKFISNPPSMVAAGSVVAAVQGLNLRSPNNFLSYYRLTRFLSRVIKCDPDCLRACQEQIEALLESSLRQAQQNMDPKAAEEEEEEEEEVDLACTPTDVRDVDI
Assay [2] deals with HT-29. Description: Antiproliferative activity against human HT-29 cells assessed as growth inhibition by CCK-8 assay. It is filed as functional, cell-based. (In general: Tetrazolium dyes change colour on reduction, which living cells bring about.)
In assay [3] the target is Cyclin-dependent kinase 2/cyclin E1 (Homo sapiens, UniProt P24941). As to the kind of experiment: Inhibition of CDK2/cyclin E1 (unknown origin). It is filed as protein-complex assay.
The test system of assay [4] is HCT-116. As to the kind of experiment: Antiproliferative activity against human HCT-116 cells assessed as growth inhibition by CCK-8 assay. Type of assay: functional, cell-based.
For assay [5], the system named is MDA-MB-231. Description: Antiproliferative activity against human MDA-MB-231 cells assessed as growth inhibition by CCK-8 assay. It is filed as functional, cell-based.
Another assay has as its target CDK7/Cyclin H/MNAT1 (Homo sapiens, UniProt P50613). As to the kind of experiment: Inhibition of CDK7/cyclin H/MAT1 (unknown origin). Type of assay: protein-complex assay.
The next assay addresses CDK6/cyclin D1 (Homo sapiens, UniProt Q00534). Description: Inhibition of CDK6/cyclin D1 (unknown origin). It is filed as protein-complex assay.
Assay [6] can be described thus: Inhibition of CDK1/cyclin B (unknown origin). Set-up: species or system Homo sapiens.
The next assay has as its target CDK9/cyclin T1 (Homo sapiens, UniProt P50750). Description: Inhibition of CDK9/cyclin T1 (unknown origin). It is filed as protein-complex assay.
The subject of a further assay is A549. Description: Antiproliferative activity against human A549 cells assessed as growth inhibition by CCK-8 assay. It is filed as functional, cell-based.
Assay [7] concerns MDA-MB-231. As to the kind of experiment: Induction of apoptosis in human MDA-MB-231 cells assessed as late apoptotic cells at 1 uM by flow cytometry (Rvb=0.72%). It is filed as functional. A general note: A flow cytometer gives signals particle by particle.
Assay [8] deals with HT-29. As to the kind of experiment: Induction of apoptosis in human HT-29 cells assessed as necrotic cells at 1 uM by flow cytometry (Rvb=2.35%). It is filed as functional.
Assay [9] relates to HCT-116. As to the kind of experiment: Induction of apoptosis in human HCT-116 cells assessed as early apoptotic cells at 5 uM by flow cytometry (Rvb=6.90%). It is filed as functional.
For assay [10], the system named is HT-29. As to the kind of experiment: Induction of apoptosis in human HT-29 cells assessed as necrotic cells at 5 uM by flow cytometry (Rvb=2.35%). Type of assay: functional.
The subject of assay [11] is MDA-MB-231. Description: Induction of apoptosis in human MDA-MB-231 cells assessed as late apoptotic cells at 5 uM by flow cytometry (Rvb=0.72%). It is filed as functional.
The test system of assay [12] is MDA-MB-231. Description: Induction of apoptosis in human MDA-MB-231 cells assessed as early apoptotic cells at 1 uM by flow cytometry (Rvb=2.93%). It is filed as functional.
Assay [13] has as its system HT-29. Description: Induction of apoptosis in human HT-29 cells assessed as early apoptotic cells at 1 uM by flow cytometry (Rvb=8.68%). Type of assay: functional.
Assay [14] deals with HT-29. Description: Induction of apoptosis in human HT-29 cells assessed as viable cells at 1 uM by flow cytometry (Rvb=83.94%). Type of assay: functional. The settings on record: read-out: Activity.
Assay [15] has as its system HCT-116. Description: Induction of apoptosis in human HCT-116 cells assessed as viable cells at 5 uM by flow cytometry (Rvb=86.61%). Type of assay: functional. The settings on record: read-out: Activity.
In assay [16] the test system is MDA-MB-231. Description: Induction of apoptosis in human MDA-MB-231 cells assessed as necrotic cells at 1 uM by flow cytometry (Rvb=4.37%). Type of assay: functional.
Assay [17] deals with HCT-116. As to the kind of experiment: Induction of apoptosis in human HCT-116 cells assessed as viable cells at 1 uM by flow cytometry (Rvb=86.61%). The settings on record: read-out: Activity. Type of assay: functional.
In assay [18] the test system is HT-29. As to the kind of experiment: Induction of apoptosis in human HT-29 cells assessed as viable cells at 5 uM by flow cytometry (Rvb=83.94%). It is filed as functional. The settings on record: read-out: Activity.
Assay [19] has as its system MDA-MB-231. Description: Induction of apoptosis in human MDA-MB-231 cells assessed as viable cells at 1 uM by flow cytometry (Rvb=92.08%). The settings on record: read-out: Activity. It is filed as functional.
The test system of assay [20] is HCT-116. Description: Induction of apoptosis in human HCT-116 cells assessed as necrotic cells at 1 uM by flow cytometry (Rvb=1.57%). Type of assay: functional.
Assay [21] deals with MDA-MB-231. As to the kind of experiment: Induction of apoptosis in human MDA-MB-231 cells assessed as necrotic cells at 5 uM by flow cytometry (Rvb=4.37%). Type of assay: functional.
Assay [22] deals with MDA-MB-231. Description: Induction of apoptosis in human MDA-MB-231 cells assessed as early apoptotic cells at 5 uM by flow cytometry (Rvb=2.93%). Type of assay: functional.
The test system of assay [23] is HT-29. As to the kind of experiment: Induction of apoptosis in human HT-29 cells assessed as late apoptotic cells at 1 uM by flow cytometry (Rvb=5.03%). It is filed as functional.
The subject of assay [24] is HCT-116. As to the kind of experiment: Induction of apoptosis in human HCT-116 cells assessed as late apoptotic cells at 1 uM by flow cytometry (Rvb=4.92%). It is filed as functional.
Assay [25] concerns HCT-116. Description: Induction of apoptosis in human HCT-116 cells assessed as late apoptotic cells at 5 uM by flow cytometry (Rvb=4.92%). It is filed as functional.
Assay [26] deals with HT-29. Description: Induction of apoptosis in human HT-29 cells assessed as late apoptotic cells at 5 uM by flow cytometry (Rvb=5.03%). It is filed as functional.
For assay [27], the system named is MDA-MB-231. As to the kind of experiment: Induction of apoptosis in human MDA-MB-231 cells assessed as viable cells at 5 uM by flow cytometry (Rvb=92.08%). Type of assay: functional. The settings on record: read-out: Activity.
Assay [28] concerns HT-29. Description: Induction of apoptosis in human HT-29 cells assessed as early apoptotic cells at 5 uM by flow cytometry (Rvb=8.68%). It is filed as functional.
Assay [29] relates to HCT-116. Description: Induction of apoptosis in human HCT-116 cells assessed as necrotic cells at 5 uM by flow cytometry (Rvb=1.57%). Type of assay: functional.
The subject of assay [30] is HCT-116. Description: Induction of apoptosis in human HCT-116 cells assessed as early apoptotic cells at 1 uM by flow cytometry (Rvb=6.90%). Type of assay: functional.

CDK6/cyclin D1, sequence (P24385 whole entry): as the sequence (P24385 whole entry, further chain) above
CDK6/cyclin D1, sequence (Q00534 whole entry): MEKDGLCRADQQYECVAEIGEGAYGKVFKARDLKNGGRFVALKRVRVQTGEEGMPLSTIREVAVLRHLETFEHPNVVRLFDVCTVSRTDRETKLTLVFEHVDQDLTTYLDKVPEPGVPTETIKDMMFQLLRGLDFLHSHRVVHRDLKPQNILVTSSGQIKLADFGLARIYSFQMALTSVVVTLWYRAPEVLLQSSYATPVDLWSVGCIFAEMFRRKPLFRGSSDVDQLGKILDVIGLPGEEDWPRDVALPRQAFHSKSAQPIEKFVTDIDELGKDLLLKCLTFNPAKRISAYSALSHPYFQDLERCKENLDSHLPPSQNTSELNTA
CDK7/Cyclin H/MNAT1, sequence (P51946 whole entry): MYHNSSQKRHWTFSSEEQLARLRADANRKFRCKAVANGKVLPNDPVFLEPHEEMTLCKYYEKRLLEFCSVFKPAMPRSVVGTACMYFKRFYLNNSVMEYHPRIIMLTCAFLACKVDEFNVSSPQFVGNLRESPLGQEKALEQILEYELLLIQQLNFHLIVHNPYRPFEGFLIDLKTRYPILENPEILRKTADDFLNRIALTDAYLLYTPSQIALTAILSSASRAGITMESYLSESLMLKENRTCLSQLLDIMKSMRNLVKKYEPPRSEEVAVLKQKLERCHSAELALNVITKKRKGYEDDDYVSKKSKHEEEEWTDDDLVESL
CDK7/Cyclin H/MNAT1, sequence (P50613 whole entry): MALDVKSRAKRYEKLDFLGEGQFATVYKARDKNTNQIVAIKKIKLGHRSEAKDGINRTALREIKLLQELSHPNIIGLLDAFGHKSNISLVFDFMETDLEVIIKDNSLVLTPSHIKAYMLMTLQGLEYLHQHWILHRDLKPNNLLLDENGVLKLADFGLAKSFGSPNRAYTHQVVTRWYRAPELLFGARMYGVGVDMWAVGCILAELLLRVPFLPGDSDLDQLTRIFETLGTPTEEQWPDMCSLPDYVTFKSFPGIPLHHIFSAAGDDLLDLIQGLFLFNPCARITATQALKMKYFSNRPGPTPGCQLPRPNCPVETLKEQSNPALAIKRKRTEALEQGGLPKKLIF
CDK7/Cyclin H/MNAT1, sequence (P51948 whole entry, further chain): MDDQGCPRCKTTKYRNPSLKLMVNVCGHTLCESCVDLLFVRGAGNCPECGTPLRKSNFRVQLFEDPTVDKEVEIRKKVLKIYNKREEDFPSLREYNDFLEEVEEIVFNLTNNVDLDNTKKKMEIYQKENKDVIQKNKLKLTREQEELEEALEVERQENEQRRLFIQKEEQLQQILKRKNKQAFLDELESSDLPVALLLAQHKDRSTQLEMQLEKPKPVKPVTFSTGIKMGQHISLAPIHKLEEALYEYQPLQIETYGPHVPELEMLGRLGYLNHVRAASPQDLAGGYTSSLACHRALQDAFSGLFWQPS
CDK9/cyclin T1, sequence (O60563 whole entry): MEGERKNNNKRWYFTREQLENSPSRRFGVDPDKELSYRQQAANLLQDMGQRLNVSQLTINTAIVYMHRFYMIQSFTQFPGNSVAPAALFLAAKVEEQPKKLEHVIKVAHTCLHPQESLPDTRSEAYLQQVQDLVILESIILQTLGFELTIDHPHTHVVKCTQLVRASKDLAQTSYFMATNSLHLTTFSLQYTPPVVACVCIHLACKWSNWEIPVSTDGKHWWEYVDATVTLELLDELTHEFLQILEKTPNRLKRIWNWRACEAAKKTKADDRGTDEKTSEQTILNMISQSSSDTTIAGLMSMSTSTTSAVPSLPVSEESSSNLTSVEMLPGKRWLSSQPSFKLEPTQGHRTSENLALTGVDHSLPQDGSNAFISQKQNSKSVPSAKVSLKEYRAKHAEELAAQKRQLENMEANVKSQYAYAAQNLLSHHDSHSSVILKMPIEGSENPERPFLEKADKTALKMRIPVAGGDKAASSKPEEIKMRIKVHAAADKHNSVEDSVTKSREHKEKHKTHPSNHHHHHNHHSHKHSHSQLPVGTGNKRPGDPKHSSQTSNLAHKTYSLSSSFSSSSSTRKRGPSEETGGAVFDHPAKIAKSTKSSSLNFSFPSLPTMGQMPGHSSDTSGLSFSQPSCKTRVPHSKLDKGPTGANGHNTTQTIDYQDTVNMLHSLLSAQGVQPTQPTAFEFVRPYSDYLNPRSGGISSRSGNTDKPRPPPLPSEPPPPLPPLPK
CDK9/cyclin T1, sequence (P50750 whole entry): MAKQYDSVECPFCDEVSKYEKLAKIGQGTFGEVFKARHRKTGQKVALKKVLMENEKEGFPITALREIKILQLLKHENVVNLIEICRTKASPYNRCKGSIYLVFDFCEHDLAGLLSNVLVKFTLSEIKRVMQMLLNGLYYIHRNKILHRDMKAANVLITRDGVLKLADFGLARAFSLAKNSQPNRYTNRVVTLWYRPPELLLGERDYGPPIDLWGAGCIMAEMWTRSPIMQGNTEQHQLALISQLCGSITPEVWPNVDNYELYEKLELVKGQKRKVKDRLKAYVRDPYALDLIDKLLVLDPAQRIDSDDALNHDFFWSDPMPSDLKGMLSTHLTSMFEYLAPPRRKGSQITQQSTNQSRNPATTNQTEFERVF

On to `CC(=O)c1nc2cnc(Nc3ccc(N4CCN(C)CC4)cc3)nc2n(C2CCCC2)c1=O`, for which the IC50 in [1] is 36.6 nM; with HT-29 [2], 1500 nM; in [3], over 10000 nM; in the assay with HCT-116 [4], 2400 nM; in the assay with MDA-MB-231 [5], 2200 nM; at CDK7/Cyclin H/MNAT1 it was over 10000 nM. Also, the IC50 at CDK6/cyclin D1 was 53.4 nM; in assay [6] it was over 10000 nM; against CDK9/cyclin T1, over 10000 nM; in the assay on A549, 3600 nM.
Take `CCN1CCN(c2ccc(Nc3ncc4nc(C(C)=O)c(=O)n(C5CCCC5)c4n3)c(N)c2)CC1`: the IC50 in [1] is 7890 nM; on CDK6/cyclin D1, 7080 nM.
As for `CCN1CCN(c2ccc(Nc3ncc4nc(-c5ccco5)c(=O)n(C5CCCC5)c4n3)cc2)CC1`, the half-inhibitory concentration (IC50) in assay [1] amounted to 236 nM; against CDK6/cyclin D1 it was 940 nM.
Taken in the same sequence, the figures for `CC(=O)c1nc2cnc(Nc3ccc(N4CCN(C5CCCC5)CC4)cc3)nc2n(C2CCCC2)c1=O` were 36.3 nM and 138 nM.
As for `CC(=O)c1nc2cnc(Nc3ccc(N4CCCC4)cc3)nc2n(C2CCCC2)c1=O`, the 50% inhibitory concentration (IC50) in assay [1] is 368 nM; against CDK6/cyclin D1, over 10000 nM.
Turning to `CC(=O)c1nc2cnc(Nc3ccc(N4CCC(N5CCN(C)CC5)CC4)cc3)nc2n(C2CCCC2)c1=O`, the IC50 in assay [1] came out at 30.1 nM; against CDK6/cyclin D1, 48 nM.
Regarding `CC(=O)c1nc2cnc(Nc3ccc(N4CCCCC4)cc3)nc2n(C2CCCC2)c1=O`, the IC50 in assay [1] turned out to be 64.9 nM; against CDK6/cyclin D1, 564 nM.
With `CCN1CCN(c2ccc(Nc3ncc4nc(C(C)=O)c(=O)n(C5CCCC5)c4n3)cc2)CC1`, the Activity in the assay on MDA-MB-231 [7] turned out to be 0.86%; in the assay with HT-29 [8] it was 1.21%; in the assay on HCT-116 [9], 14.39%; with HT-29 [10] it was 0.99%; in the assay with MDA-MB-231 [11], 1.75%; with MDA-MB-231 [12], 3.21%. In addition, the Activity with HT-29 [13] was 15.39%; in the assay on MDA-MB-231 [16], 4.16%; in the assay on HCT-116 [20], 0.57%; with MDA-MB-231 [21] it was 3.55%; in the assay on MDA-MB-231 [22], 6.67%; with HT-29 [23], 12.67%. The Activity with HCT-116 [24] came out at 8.42%; with HCT-116 [25], 13.39%; with HT-29 [26], 15.42%; with HT-29 [28], 14.86%; in the assay with HCT-116 [29] it was 2.16%; in the assay with HCT-116 [30], 9.54%. Besides, the IC50 in [1] is 16.7 nM; in the assay with HT-29 [2], 4000 nM; in [3], 7940 nM; with HCT-116 [4], 1900 nM; with MDA-MB-231 [5], 1900 nM; against CDK7/Cyclin H/MNAT1, over 10000 nM. Besides, the IC50 against CDK6/cyclin D1 was 30.5 nM; in assay [6], over 10000 nM; against CDK9/cyclin T1, 8040 nM; with A549, 9200 nM. Besides, the viability at 1 µM with HT-29 [14] came out at 70.7%; with HCT-116 [17], 81.5%; in the assay on MDA-MB-231 [19], 91.8%. Further, the viability at 5 µM in the assay on HCT-116 [15] turned out to be 70.2%; in the assay on HT-29 [18], 68.7%; in the assay with MDA-MB-231 [27], 88%.
In the case of `CC(=O)c1nc2cnc(Nc3ccc(N4CCOCC4)cc3)nc2n(C2CCCC2)c1=O`, the values for the IC50 (in [1]; on CDK6/cyclin D1) were 74.4 nM and 168 nM, respectively.
Regarding `CCN1CCN(c2ccc(Nc3ncc4nc(C(C)=O)c(=O)n(C5CCCC5)c4n3)c(CO)c2)CC1`, the values for the 50% inhibitory concentration (IC50) (in assay [1]; against CDK6/cyclin D1) were 110 nM and 1210 nM, respectively.
For the compound `O=c1c(-c2ccco2)nc2cnc(Nc3ccc(N4CCOCC4)cc3)nc2n1C1CCCC1`, the IC50 (in assay [1]; at CDK6/cyclin D1) was over 10000 nM throughout.
With `COc1cc(N2CCN(C)CC2)ccc1Nc1ncc2nc(C(C)=O)c(=O)n(C3CCCC3)c2n1`, the figures for the IC50 (in assay [1]; on CDK6/cyclin D1) were 4480 nM and 4740 nM, respectively.
For `CC(=O)c1c(C)c2cnc(Nc3ccc(N4CCNCC4)cn3)nc2n(C2CCCC2)c1=O` [PALBOCICLIB], the IC50 in the assay on HT-29 [2] is 9300 nM; in the assay on HCT-116 [4], over 10000 nM; in the assay on A549, over 10000 nM.
Consider `CN[C@@H]1C[C@H]2O[C@@](C)([C@@H]1OC)n1c3ccccc3c3c4c(c5c6ccccc6n2c5c31)C(=O)NC4` [STAUROSPORINE], for which, in [6], the midpoint of inhibition, the IC50, lay at 6.6 nM.
